This note sets out measurements from the supplement of paper PMC11208160.
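Further: IS621 recombinase and bridge RNA in Escherichia coli cells.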

A short description of this data set: recombinant barcode read abundance after kanamycin selection (control-corrected) (log10(CPM+1)); higher = more efficient recombination; sequences stand for … in AGTGCAGAGAAAATCGGCCAGTTTTCTCTGCCTGCAGTCCGCATGCCGT…AGATTTATGCAGCGGACTGCCTTTCTCCCAAAGTGATAAACCGGACAGTATCATGGACCGGTTTTCCCGGTAATCCGTATTTGCAAGGTTGGTTTCACT; site = the 11-nt target. Summed up: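 This pooled E. coli screen matched targets with IS621 bridge RNA target-binding loops. Plating was done in duplicate on chloramphenicol/ampicillin LB agar as a control and on chloramphenicol/ampicillin/kanamycin plus 0.1 mM IPTG. Recombination efficiency reflects barcode counts at recombinant junctions as counts per million, averaged and control-corrected. The figures are log10(CPM+1).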
For “TGTCAACCTTGGGTTCTAACCTGTTGCGT (site TGTCAAACTAC)”, the “recombinant barcode read abundance (log10)” value was determined as 0.0902.

Consider “TGTCAACCTTGGGTTCTAACCTGTTGCGT (site TGTCAACCTAC)”, for which the “recombinant barcode read abundance (log10)” value was found to be 1.02.

For “TGTCAAGCTTGGGTTCTAACCTGTTGCCT (site TGTCAAACTAG)”, the “recombinant barcode read abundance (log10)” value turned out to be 0.574.

As for “TGTCAAGCTTGGGTTCTAACCTGTTGCCT (site TGTCAACCTAG)”, the “recombinant barcode read abundance (log10)” value is 0.045.

Turning to “TGTCAAGCTTGGGTTCTAACCTGTTGCCT (site TGTCAAGCTAG)”, the “recombinant barcode read abundance (log10)” value was 0.46.

Turning to “TGTCAAGCTTGGGTTCTAACCTGTTGCCT (site TGTCAATCTAG)”, the “recombinant barcode read abundance (log10)” value came out at 0.295.

Regarding “TGTCCACCTTGGGTTCTAACCTGTTGCCT (site AGTCCACCTAG)”, the “recombinant barcode read abundance (log10)” value turned out to be 0.0595.

Take “TGTCCACCTTGGGTTCTAACCTGTTGCCT (site CGTCCACCTAG)”: the “recombinant barcode read abundance (log10)” value is 0.267.

Take “TGTCCACCTTGGGTTCTAACCTGTTGCCT (site GGTCCACCTAG)”: the “recombinant barcode read abundance (log10)” value was 0.165.

“TGTCCACCTTGGGTTCTAACCTGTTGCCT (site TGTCCACCTAG)”: the “recombinant barcode read abundance (log10)” value came to 0.623.

On to “TGTCGAGCTTGGGTTCTAACCTGTTGCGG (site TGTCGAGCTCC)”, for which the “recombinant barcode read abundance (log10)” value came to 0.977.

For the sequence “TGTCGAGCTTGGGTTCTAACCTGTTGCGG (site TTCCGAGCTCC)”, the “recombinant barcode read abundance (log10)” value came to 0.00866.

“TGTCGGACTTGGGTTCTAACCTGTTGCAC (site TGTCGGACTAT)”: the “recombinant barcode read abundance (log10)” value came to 0.741.

On to “TGTCGGACTTGGGTTCTAACCTGTTGCAC (site TGTCGGACTCT)”, for which the “recombinant barcode read abundance (log10)” value is 0.214.

As to “TGTCGGACTTGGGTTCTAACCTGTTGCAC (site TGTCGGACTGT)”, the “recombinant barcode read abundance (log10)” value turned out to be 0.38.

“TGTCGGACTTGGGTTCTAACCTGTTGCAC (site TGTCGGACTTT)”: the “recombinant barcode read abundance (log10)” value was determined as 0.0148.

For “TGTCGGCCTTGGGTTCTAACCTGTTGCTT (site CTATTTACTCC)”, the “recombinant barcode read abundance (log10)” value was 0.107.

Consider “TGTCGGCCTTGGGTTCTAACCTGTTGCTT (site TGTCGGCCTAA)”, for which the “recombinant barcode read abundance (log10)” value was 0.

As to “TGTCTCCCTTGGGTTCTAACCTGTTGCTT (site TGTCTACCTTA)”, the “recombinant barcode read abundance (log10)” value amounted to 0.0416.

As to “TGTCTCCCTTGGGTTCTAACCTGTTGCTT (site TGTCTCCCTAA)”, the “recombinant barcode read abundance (log10)” value is 0.777.

Take “TGTGACACTTGGGTTCTAACCTGTTGCAA (site AACAGGCCTAG)”: the “recombinant barcode read abundance (log10)” value was found to be 0.121.

“TGTGACACTTGGGTTCTAACCTGTTGCAA (site TGTGACACTTT)”: the “recombinant barcode read abundance (log10)” value was found to be 1.54.

“TGTGAGTCTTGGGTTCTAACCTGTTGCCT (site TGTGAGTCTAA)”: the “recombinant barcode read abundance (log10)” value amounted to 0.0418.

For “TGTGAGTCTTGGGTTCTAACCTGTTGCCT (site TGTGAGTCTAC)”, the “recombinant barcode read abundance (log10)” value turned out to be 0.73.

Take “TGTGAGTCTTGGGTTCTAACCTGTTGCCT (site TGTGAGTCTAG)”: the “recombinant barcode read abundance (log10)” value stood at 1.1.

For “TGTGAGTCTTGGGTTCTAACCTGTTGCCT (site TGTGAGTCTAT)”, the “recombinant barcode read abundance (log10)” value is 0.0543.

On to “TGTGAGTCTTGGGTTCTAACCTGTTGCTT (site TGTGAGTCTAA)”, for which the “recombinant barcode read abundance (log10)” value came out at 0.549.

For “TGTGAGTCTTGGGTTCTAACCTGTTGCTT (site TGTGAGTCTAC)”, the “recombinant barcode read abundance (log10)” value is 0.0217.

As to “TGTGAGTCTTGGGTTCTAACCTGTTGCTT (site TGTGAGTCTAG)”, the “recombinant barcode read abundance (log10)” value turned out to be 0.193.

In the case of “TGTGAGTCTTGGGTTCTAACCTGTTGCTT (site TGTGAGTCTAT)”, the “recombinant barcode read abundance (log10)” value came to 0.799.

Turning to “TGTGGGTCTTGGGTTCTAACCTGTTGCCT (site TATGGGTCTAG)”, the “recombinant barcode read abundance (log10)” value came to 0.0229.

On to “TGTGGGTCTTGGGTTCTAACCTGTTGCCT (site TGTGGGTCTAG)”, for which the “recombinant barcode read abundance (log10)” value amounted to 0.393.

On to “TGTGTCCCTTGGGTTCTAACCTGTTGCCG (site TGTCTCCCTCG)”, for which the “recombinant barcode read abundance (log10)” value stood at 0.0681.

As for “TGTGTCCCTTGGGTTCTAACCTGTTGCCG (site TGTGTCCCTCG)”, the “recombinant barcode read abundance (log10)” value was determined as 1.1.

As to “TGTTAGCCTTGGGTTCTAACCTGTTGCCA (site GGTTAGCCTAG)”, the “recombinant barcode read abundance (log10)” value is 0.0168.

“TGTTAGCCTTGGGTTCTAACCTGTTGCCA (site TGTTAGCCTTG)”: the “recombinant barcode read abundance (log10)” value was 0.0869.

“TGTTAGCCTTGGGTTCTAACCTGTTGCCT (site GGCTAGCCTAG)”: the “recombinant barcode read abundance (log10)” value was found to be 0.0606.

On to “TGTTAGCCTTGGGTTCTAACCTGTTGCCT (site TGTTAGCCTAG)”, for which the “recombinant barcode read abundance (log10)” value amounted to 0.0878.

In the case of “TGTTGCACTTGGGTTCTAACCTGTTGCCT (site TGTTGCACTAG)”, the “recombinant barcode read abundance (log10)” value was found to be 0.0616.

As to “TGTTGCACTTGGGTTCTAACCTGTTGCCT (site TGTTGGCCTAG)”, the “recombinant barcode read abundance (log10)” value came to 0.0587.

For “TTAACTACTTGGGTTCTAACCTGTTGCTC (site TTAACTACTAA)”, the “recombinant barcode read abundance (log10)” value came to 0.0118.

Take “TTAACTACTTGGGTTCTAACCTGTTGCTC (site TTAACTACTCA)”: the “recombinant barcode read abundance (log10)” value is 0.126.

“TTAACTACTTGGGTTCTAACCTGTTGCTC (site TTAACTACTGA)”: the “recombinant barcode read abundance (log10)” value is 0.195.

As for “TTAACTACTTGGGTTCTAACCTGTTGCTC (site TTAACTACTTA)”, the “recombinant barcode read abundance (log10)” value was found to be 0.

On to “TTAAGACCTTGGGTTCTAACCTGTTGCCT (site TTAAGACCTAG)”, for which the “recombinant barcode read abundance (log10)” value turned out to be 1.37.

As for “TTAAGACCTTGGGTTCTAACCTGTTGCCT (site TTAAGCCCTAG)”, the “recombinant barcode read abundance (log10)” value came to 0.336.

As for “TTAAGTCCTTGGGTTCTAACCTGTTGCCT (site TTAAGTCCTAG)”, the “recombinant barcode read abundance (log10)” value amounted to 0.448.

For the sequence “TTAAGTCCTTGGGTTCTAACCTGTTGCCT (site TTCAGTCCTAT)”, the “recombinant barcode read abundance (log10)” value is 0.134.

“TTACAATCTTGGGTTCTAACCTGTTGCCT (site ATACAATCTAG)”: the “recombinant barcode read abundance (log10)” value was 0.31.

On to “TTACAATCTTGGGTTCTAACCTGTTGCCT (site CTACAATCTAG)”, for which the “recombinant barcode read abundance (log10)” value was 0.337.

As to “TTACAATCTTGGGTTCTAACCTGTTGCCT (site GTACAATCTAG)”, the “recombinant barcode read abundance (log10)” value was determined as 0.0953.

With “TTACAATCTTGGGTTCTAACCTGTTGCCT (site TTACAATCTAG)”, the “recombinant barcode read abundance (log10)” value was 0.764.

In the case of “TTACCTACTTGGGTTCTAACCTGTTGCCT (site TTACCAACTAG)”, the “recombinant barcode read abundance (log10)” value is 0.237.

As for “TTACCTACTTGGGTTCTAACCTGTTGCCT (site TTACCCACTAG)”, the “recombinant barcode read abundance (log10)” value amounted to 0.0698.

In the case of “TTACCTACTTGGGTTCTAACCTGTTGCCT (site TTACCGACTAG)”, the “recombinant barcode read abundance (log10)” value amounted to 0.278.

For “TTACCTACTTGGGTTCTAACCTGTTGCCT (site TTACCTACTAG)”, the “recombinant barcode read abundance (log10)” value turned out to be 0.802.

On to “TTACGAGCTTGGGTTCTAACCTGTTGCCT (site TCACTAGCTAG)”, for which the “recombinant barcode read abundance (log10)” value worked out at 0.131.

Turning to “TTACGAGCTTGGGTTCTAACCTGTTGCCT (site TTACGAGCTAG)”, the “recombinant barcode read abundance (log10)” value is 1.08.

In the case of “TTACGCACTTGGGTTCTAACCTGTTGCCT (site TAACCCACTAG)”, the “recombinant barcode read abundance (log10)” value was 0.264.
